Here are results for three compounds from patent US8765677B2 (priority 2009, dated 2014).

As usually defined, the inhibition is how much of the control response was suppressed. The IC50 is the midpoint of a concentration-inhibition curve. By Hill slope is commonly meant the slope factor of the fitted curve.

“And” between values parts separate entries of the source, which are not always exact repeats. Equal entries are not always repeated. Where a SMILES comes first, the peptide text is derived from it. Some results are limits rather than exact numbers.

Assay [1] addresses recombinant Cav2.1 α1A (P/Q-type) channels (α/α2δ1/β3) (Oryctolagus cuniculus, UniProt P27884). Kind of assay: cell-based. Details: species or system rabbit. The following applies: read-out: inhibition of Cav2.1 channels.
Assay [2] concerns recombinant N-type (Cav2.2) VGCCs α1B-b/β3. It is filed as cell-based, rat.
In assay [3] the target is recombinant Cav2.3 α1E (R-type) channels (α/α2δ1/β3) (Rattus norvegicus, UniProt Q07652). It counts as cell-based.
In assay [4] the target is recombinant Cav1.3 α1D (L-type) channels (α/α2δ1/β3) (Rattus norvegicus, UniProt P27732). It is filed as cell-based.
Assay [5] has as its target recombinant Cav1.2 α1C (L-type) channels (α/α2δ1/β3) (Oryctolagus cuniculus, UniProt P15381). It counts as cell-based, rabbit.
In assay [6] the target is recombinant N-type (Cav2.2) VGCCs α1B-b/α2δ1/β3 (Rattus norvegicus, UniProt Q02294). The assay is described as follows: cell-based. It is filed as cell-based.
Chain of recombinant N-type (Cav2.2) VGCCs α1B-b/α2δ1/β3 (Q02294 whole entry, looked up): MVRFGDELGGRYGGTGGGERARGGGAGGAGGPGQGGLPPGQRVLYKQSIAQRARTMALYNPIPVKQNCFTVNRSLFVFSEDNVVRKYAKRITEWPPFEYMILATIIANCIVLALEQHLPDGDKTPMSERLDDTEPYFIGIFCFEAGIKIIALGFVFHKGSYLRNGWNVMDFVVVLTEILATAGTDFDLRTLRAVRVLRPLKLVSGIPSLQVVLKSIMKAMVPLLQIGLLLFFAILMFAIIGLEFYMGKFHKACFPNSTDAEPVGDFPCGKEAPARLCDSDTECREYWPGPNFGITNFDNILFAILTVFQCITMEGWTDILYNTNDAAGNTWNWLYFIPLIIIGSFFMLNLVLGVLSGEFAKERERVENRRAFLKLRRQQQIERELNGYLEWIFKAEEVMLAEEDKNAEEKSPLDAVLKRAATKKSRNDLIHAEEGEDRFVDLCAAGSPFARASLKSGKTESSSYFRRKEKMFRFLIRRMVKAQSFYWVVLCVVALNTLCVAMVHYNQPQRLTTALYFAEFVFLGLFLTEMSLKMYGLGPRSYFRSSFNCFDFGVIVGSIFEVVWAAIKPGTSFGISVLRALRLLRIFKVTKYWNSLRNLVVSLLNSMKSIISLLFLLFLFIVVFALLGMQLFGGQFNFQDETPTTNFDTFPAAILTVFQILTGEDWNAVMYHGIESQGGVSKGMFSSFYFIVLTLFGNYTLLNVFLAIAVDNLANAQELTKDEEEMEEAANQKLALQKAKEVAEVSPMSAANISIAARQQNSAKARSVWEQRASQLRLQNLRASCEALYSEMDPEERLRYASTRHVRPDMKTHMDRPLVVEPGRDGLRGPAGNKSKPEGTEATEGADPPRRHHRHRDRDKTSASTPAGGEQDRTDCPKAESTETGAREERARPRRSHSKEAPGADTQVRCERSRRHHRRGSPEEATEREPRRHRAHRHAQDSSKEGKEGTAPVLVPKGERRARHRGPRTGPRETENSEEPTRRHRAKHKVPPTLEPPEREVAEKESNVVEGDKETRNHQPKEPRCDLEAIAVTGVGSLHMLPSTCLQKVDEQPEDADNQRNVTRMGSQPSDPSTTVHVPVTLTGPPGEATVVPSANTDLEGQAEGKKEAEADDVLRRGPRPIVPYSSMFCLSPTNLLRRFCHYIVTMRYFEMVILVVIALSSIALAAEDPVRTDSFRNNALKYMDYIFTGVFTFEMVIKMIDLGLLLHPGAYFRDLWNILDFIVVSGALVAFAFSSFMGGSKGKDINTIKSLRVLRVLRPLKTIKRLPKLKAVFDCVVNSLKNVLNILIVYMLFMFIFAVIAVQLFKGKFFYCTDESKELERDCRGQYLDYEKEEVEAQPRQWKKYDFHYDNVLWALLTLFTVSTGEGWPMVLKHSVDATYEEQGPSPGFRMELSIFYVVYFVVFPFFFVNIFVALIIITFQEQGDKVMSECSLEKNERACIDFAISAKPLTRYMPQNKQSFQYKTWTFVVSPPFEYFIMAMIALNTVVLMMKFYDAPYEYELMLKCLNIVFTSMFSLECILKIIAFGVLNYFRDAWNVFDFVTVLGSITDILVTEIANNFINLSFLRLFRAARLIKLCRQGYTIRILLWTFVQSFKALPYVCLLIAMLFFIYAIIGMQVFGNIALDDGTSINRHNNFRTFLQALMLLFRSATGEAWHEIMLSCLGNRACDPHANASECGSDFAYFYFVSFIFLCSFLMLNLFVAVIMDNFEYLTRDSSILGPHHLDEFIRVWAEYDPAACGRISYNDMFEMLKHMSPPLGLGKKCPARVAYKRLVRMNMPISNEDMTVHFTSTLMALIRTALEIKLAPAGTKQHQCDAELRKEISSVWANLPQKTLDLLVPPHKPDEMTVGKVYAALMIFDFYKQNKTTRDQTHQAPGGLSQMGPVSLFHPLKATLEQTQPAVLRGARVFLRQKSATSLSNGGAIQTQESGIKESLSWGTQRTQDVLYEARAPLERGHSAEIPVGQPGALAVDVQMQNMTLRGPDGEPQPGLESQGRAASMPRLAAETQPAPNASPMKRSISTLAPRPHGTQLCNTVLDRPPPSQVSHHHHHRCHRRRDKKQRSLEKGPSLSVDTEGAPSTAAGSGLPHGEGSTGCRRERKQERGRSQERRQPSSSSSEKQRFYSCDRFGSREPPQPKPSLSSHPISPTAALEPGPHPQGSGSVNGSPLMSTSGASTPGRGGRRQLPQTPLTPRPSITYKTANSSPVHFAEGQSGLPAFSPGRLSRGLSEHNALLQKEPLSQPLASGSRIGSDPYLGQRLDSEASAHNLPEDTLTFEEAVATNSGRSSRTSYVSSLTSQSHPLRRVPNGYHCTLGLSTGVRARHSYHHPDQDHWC

Chain of recombinant Cav2.1 α1A (P/Q-type) channels (α/α2δ1/β3) (P27884 whole entry, looked up): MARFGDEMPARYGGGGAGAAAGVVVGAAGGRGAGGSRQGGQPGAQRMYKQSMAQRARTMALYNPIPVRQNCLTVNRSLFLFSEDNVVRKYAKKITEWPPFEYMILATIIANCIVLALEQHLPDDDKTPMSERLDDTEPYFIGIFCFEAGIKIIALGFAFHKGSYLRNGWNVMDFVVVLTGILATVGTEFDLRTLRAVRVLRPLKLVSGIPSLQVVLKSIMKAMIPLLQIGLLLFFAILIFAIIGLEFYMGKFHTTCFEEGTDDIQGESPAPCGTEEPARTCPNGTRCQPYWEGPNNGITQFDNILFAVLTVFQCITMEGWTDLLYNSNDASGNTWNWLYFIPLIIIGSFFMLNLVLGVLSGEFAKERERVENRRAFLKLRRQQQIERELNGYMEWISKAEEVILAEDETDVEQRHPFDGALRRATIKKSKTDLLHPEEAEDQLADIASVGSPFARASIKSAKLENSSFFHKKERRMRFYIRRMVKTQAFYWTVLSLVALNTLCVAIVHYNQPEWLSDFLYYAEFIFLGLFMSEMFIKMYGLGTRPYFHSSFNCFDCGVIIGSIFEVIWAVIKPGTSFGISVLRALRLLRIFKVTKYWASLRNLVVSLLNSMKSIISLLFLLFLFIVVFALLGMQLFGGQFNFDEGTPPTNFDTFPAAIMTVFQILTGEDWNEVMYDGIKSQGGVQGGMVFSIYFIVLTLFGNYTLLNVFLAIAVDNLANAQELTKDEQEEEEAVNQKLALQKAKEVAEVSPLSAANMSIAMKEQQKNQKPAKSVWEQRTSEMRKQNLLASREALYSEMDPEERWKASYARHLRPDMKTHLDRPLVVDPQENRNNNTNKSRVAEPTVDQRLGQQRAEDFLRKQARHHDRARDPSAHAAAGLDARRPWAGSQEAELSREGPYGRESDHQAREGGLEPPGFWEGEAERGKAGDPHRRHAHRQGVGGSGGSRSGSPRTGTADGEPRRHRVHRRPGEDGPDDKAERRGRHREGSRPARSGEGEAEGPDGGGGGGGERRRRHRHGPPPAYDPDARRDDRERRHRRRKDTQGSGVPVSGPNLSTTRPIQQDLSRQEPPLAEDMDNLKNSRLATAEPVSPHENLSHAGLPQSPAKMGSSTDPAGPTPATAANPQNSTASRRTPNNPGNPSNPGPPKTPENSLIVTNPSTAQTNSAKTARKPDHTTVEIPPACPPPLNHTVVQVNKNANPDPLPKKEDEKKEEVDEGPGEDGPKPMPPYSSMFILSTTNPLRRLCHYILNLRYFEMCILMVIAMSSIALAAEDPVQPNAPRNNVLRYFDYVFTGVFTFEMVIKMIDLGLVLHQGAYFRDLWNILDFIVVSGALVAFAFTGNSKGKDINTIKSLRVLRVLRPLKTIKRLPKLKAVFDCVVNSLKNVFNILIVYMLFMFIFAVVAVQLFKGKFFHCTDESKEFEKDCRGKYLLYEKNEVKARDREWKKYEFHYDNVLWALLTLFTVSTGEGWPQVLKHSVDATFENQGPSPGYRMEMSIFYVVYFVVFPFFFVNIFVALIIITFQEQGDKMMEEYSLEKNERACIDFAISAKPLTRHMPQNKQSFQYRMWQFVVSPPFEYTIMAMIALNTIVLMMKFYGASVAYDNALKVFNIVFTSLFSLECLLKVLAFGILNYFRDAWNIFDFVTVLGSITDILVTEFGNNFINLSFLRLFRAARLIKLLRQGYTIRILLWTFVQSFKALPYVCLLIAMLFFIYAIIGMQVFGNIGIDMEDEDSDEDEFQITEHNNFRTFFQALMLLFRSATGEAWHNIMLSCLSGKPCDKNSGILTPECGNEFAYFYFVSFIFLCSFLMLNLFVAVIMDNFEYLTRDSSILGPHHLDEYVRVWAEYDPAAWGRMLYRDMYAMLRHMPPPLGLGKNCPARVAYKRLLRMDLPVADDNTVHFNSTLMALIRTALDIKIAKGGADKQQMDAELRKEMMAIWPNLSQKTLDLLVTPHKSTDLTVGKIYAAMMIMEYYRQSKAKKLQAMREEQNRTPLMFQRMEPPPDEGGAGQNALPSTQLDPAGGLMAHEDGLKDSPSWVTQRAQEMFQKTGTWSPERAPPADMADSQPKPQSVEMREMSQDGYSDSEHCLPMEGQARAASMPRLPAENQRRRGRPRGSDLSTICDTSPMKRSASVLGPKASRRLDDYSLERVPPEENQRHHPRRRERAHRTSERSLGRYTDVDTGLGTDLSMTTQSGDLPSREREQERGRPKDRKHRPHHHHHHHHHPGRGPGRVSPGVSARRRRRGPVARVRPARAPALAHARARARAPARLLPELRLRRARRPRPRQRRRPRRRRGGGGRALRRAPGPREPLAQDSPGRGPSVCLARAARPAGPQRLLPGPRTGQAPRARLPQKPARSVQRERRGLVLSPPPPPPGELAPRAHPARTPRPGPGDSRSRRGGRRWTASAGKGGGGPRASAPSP

As for `C[C@@H]1NC(=O)CNC(=O)[C@H](CCCCN)NC(=O)CNC(=O)[C@H](CCCCN)NC(=O)[C@@H](N)CSSC[C@@H]2NC(=O)[C@@H]3CSSC[C@@H](C(N)=O)NC(=O)[C@H](CCCNC(=N)N)NC(=O)CNC(=O)[C@H](CO)NC(=O)[C@H](CCCNC(=N)N)NC(=O)[C@H](CSSC[C@H](NC(=O)[C@H](CO)NC1=O)C(=O)N[C@@H](CCCNC(=N)N)C(=O)N[C@@H](CCCNC(=N)N)C(=O)N[C@@H]([C@@H](C)O)C(=O)N[C@@H](CO)C(=O)N[C@@H](Cc1ccc(O)cc1)C(=O)N[C@@H](CC(=O)O)C(=O)N3)NC(=O)[C@H](CO)NC(=O)CNC(=O)[C@H]([C@@H](C)O)NC2=O` [CVIE, CKGKGASCRRTSYDCCTGSCRSGRC], in assay [1], the inhibition at 3 µM is less than 10%. Besides, the IC50 in assay [2] amounted to 0.12 ± 0.05 nM. Also, the “effect on Cav2.3 channels” value in assay [3] was “neither peptide had any effect”. In addition, the “effect on Cav1.3 channels” value in assay [4] is “neither peptide had any effect”. The “effect on Cav1.2 channels” value in assay [5] is “neither peptide had any effect”. Moreover, in assay [6], the Hill slope is reported as 0.45±0.03; the IC50 was found to be 2.6 ± 0.5 nM; the “inhibition of depolarization-activated Ba2+ currents (IBa)” value was “potently inhibited”; the “time constant of block (τon)” value was 31.5 ± 2.4 s and 38.5 ± 2.8 s.

For the compound `CSCC[C@@H]1NC(=O)[C@H]([C@@H](C)O)NC(=O)[C@H](CCCCN)NC(=O)[C@H](CCCNC(=N)N)NC(=O)[C@@H]2CSSC[C@@H]3NC(=O)[C@H](CO)NC(=O)CNC(=O)[C@H](CCCNC(=N)N)NC(=O)[C@H](CSSC[C@H](N)C(=O)N[C@@H](CCCCN)C(=O)NCC(=O)N[C@@H](CCCCN)C(=O)NCC(=O)N[C@@H](C)C(=O)N[C@@H](CO)C(=O)N2)NC(=O)[C@H](CSSC[C@@H](C(N)=O)NC(=O)[C@H](CCCNC(=N)N)NC(=O)CNC(=O)[C@H](CO)NC(=O)[C@H](CCCNC(=N)N)NC3=O)NC(=O)[C@H](CC(=O)O)NC(=O)[C@H](Cc2ccc(O)cc2)NC1=O` [CVIB, reference compound] (HELM PEPTIDE1{C.K.G.K.G.A.S.C.R.K.T.M.Y.D.C.C.R.G.S.C.R.S.G.R.C.[am]}$PEPTIDE1,PEPTIDE1,1:R3-16:R3|PEPTIDE1,PEPTIDE1,8:R3-20:R3|PEPTIDE1,PEPTIDE1,15:R3-25:R3$$$V2.0), the IC50 in assay [2] is 1.6 ± 0.6 nM. Further, in assay [6], the Hill slope was determined as 0.47±0.03 and the IC50 is 12 ± 2.3 nM.

Consider `CC(C)C[C@@H]1NC(=O)[C@H](CCCNC(=N)N)NC(=O)[C@@H]2CSSC[C@@H]3NC(=O)[C@H](CO)NC(=O)[C@H](C)NC(=O)CNC(=O)[C@H](CCCCN)NC(=O)CNC(=O)[C@H](CCCCN)NC(=O)[C@@H](N)CSSC[C@H](NC(=O)[C@H](CSSC[C@@H](C(N)=O)NC(=O)[C@H](CCCNC(=N)N)NC(=O)CNC1=O)NC(=O)[C@H](CC(=O)O)NC(=O)[C@H](Cc1ccc(O)cc1)NC(=O)[C@H](CO)NC(=O)[C@H]([C@@H](C)O)NC(=O)[C@H](CCCNC(=N)N)NC(=O)[C@H](CCCNC(=N)N)NC3=O)C(=O)N[C@@H]([C@@H](C)O)C(=O)NCC(=O)N[C@@H](CO)C(=O)N2` [CVIF] (HELM PEPTIDE1{C.K.G.K.G.A.S.C.R.R.T.S.Y.D.C.C.T.G.S.C.R.L.G.R.C.[am]}$PEPTIDE1,PEPTIDE1,1:R3-16:R3|PEPTIDE1,PEPTIDE1,8:R3-20:R3|PEPTIDE1,PEPTIDE1,15:R3-25:R3$$$V2.0), for which, in assay [1], the inhibition at 3 µM is less than 10%. The IC50 in assay [2] came to 0.1 ± 0.07 nM. For the same compound, the “effect on Cav2.3 channels” value in assay [3] is “neither peptide had any effect”. Further, the “effect on Cav1.3 channels” value in assay [4] was “neither peptide had any effect”. Further, in assay [5], the “effect on Cav1.2 channels” value is reported as “neither peptide had any effect”. In assay [6], the Hill slope stood at 0.51±0.04 and the “inhibition of depolarization-activated Ba2+ currents (IBa)” value is “potently inhibited”.
